# Measured values taken from article PMC5190008, “BO-1055, a novel DNA cross-linking agent with remarkable low myelotoxicity shows potent activity in sarcoma models” (Oncotarget, 2016).
# Columns and labels:
# [1] = system: A673 spheroids; experiment: Spheroid assay in 3D culture (methylcellulose); type: cell-based, human
# Method: A673 cells were seeded on flat bottom non attachment 24 well plates (1000 cells/well) in triplicate using 1.2 % methylcellulose (Dow Chemical, Waterloo, NY) mixed with 20% FCS and specified concentrations of BO-1055 or 4HC as shown in Figure 1D. Samples were incubated at 37°C / 5 % CO2 and colonies were scored 14 days after plating.
# [2] = system: cord blood CD34+ cells; experiment: Comet assay; type: cell-based, human; details: 3h
# Method: We used comet assay, which includes single cell gel electrophoresis to assess DNA breaks when exposed to radiation or DNA damaging agents. […] Olive moment (micrometers), a product of tail DNA% and the distance between the centroids of head and tail, is an accurate parameter of DNA damage. […] Gamma-H2AX (γH2AX) phosphorylation is the initial step in DNA damage response following double stranded breaks and is responsible for recruiting DNA repair proteins.
# Comet assay was performed according to the protocol described earlier. Cells were treated with BO-1055 at 2μM concentration for 3h, or immediately after exposure to 8Gy radiation after which they were isolated and mixed with 1% low melting point agarose in a tube. The cells in agarose were transferred to slides coated with normal melting point agarose. The agarose-immobilized cells were lysed in alkaline solution and the agarose trapped DNA was electrophoresed. DNA was stained with ethidium bromide and image acquisition was done immediately. DNA damage quantification was performed using OpenComet v1.3, an open-source software plugin in Image J 1.47v software (NIH, USA) for automated analysis. Olive moment, which is the product of tail DNA% and the distance between the intensity-weighted centroids of head and tail was taken from the output for analysis.
# [3] = system: CCRF-CEM/Taxol cells; parameters: method as in PMID 21106377; details: CCRF-CEM/Taxol ref 6; cited from earlier work
# [4] = system: Ewing sarcoma patient samples; experiment: Alamar Blue cell proliferation assay; type: cell-based, human
# From the text: Ewing sarcoma cell line A673, Prostate (PC-3, LNCaP, 22RV/HL2), colon (HCT-116), breast (MCF-7, MX-1), small cell lung cancer (H526) and renal (A-498, 786-0) cancer cell lines were purchased from American Type Culture Collection (ATCC, Manassas, VA). Dr. Marc Ladanyi (Department of Pathology, MSKCC) kindly provided the following cell lines: CHLA-9, TC32, RMS559 and TE-381. Dr. Gary Schwartz kindly provided the following osteosarcoma cell lines: OSA, U20S and SAOS. Dr. Constantine Markides, (CHRISTUS Stehlin Foundation for Cancer Research, TX) kindly provided Ewing sarcoma and desmoplastic small round cell tumor (DSRCT) cell lines, including CAR, ZUC, ORA, BER and BOD. Early cultures derived from Ewing sarcoma patient samples, including IARC-EW1, SIM-1 were obtained from the MSKCC monoclonal antibody core facility. […]
# AlamarBlue® assay (Invitrogen, Carlsbad, CA, USA) was performed to evaluate anti-proliferative activity of the drugs in cell lines and primary cells. […] The absorbance was measured using the Synergy H1 hybrid multi-mode microplate reader (BioTek, USA). The drug effect was quantified as the percentage of control absorbance at 540 nm and 585 nm. Optical density was determined for 3 replicates per treatment condition and cell proliferation in drug-treated cells was normalized to their respective controls. […]
structure (smiles),measurement,setting,value
CN(C)CCNC(=O)c1cccc(NC(=O)Nc2ccc(N(CCCl)CCCl)cc2)c1 [BO-1055],concentration giving complete inhibition of spheroids,"[1]; A673 spheroids in methylcellulose, scored 14 days after plating",0.5 µM
same,fold lower concentration inhibiting A673 spheroids compared to 4-HC,[1]; BO-1055 vs 4-HC,10 fold
same,"olive moment relative to radiation (XRT, 8Gy)",[2],relatively less
same,resistance of CCRF-CEM/Taxol cells,[3],9.4 fold
same,IC50,[4],submicromolar
